What was measured:
[1] = Pharmacokinetic experiment in Beagle dogs, oral capsules; type: in vivo; details: male Beagle dogs, 5 mg/kg
Experimental: The crystal form H of the compound having Formula (I) was filled into capsules, which were used for oral administration.
Three male Beagle dogs weighing 8-12 kg were orally administered with capsules containing the test sample at a dose of 5 mg/kg, and blood samples were taken at time points of 0.25 h, 0.5 h, 1.0 h, 2.0 h, 4.0 h, 6.0 h, 8.0 h and 24 h. Standard curve was plotted based on concentrations of the samples in a suitable range, the concentration of the test sample in the plasma sample was measured and quantified by AB SCIEX API4000 LC-MS/MS at MRM mode. Pharmacokinetic parameters were calculated according to drug concentration-time curve using a noncompartmental method by WinNonLin 6.3 software.

[2] = Hygroscopicity experiment by dynamic moisture adsorption (DVS); type: physicochemical; details: relative humidity of 80%, 25° C.
Experimental: The hygroscopicity of the present invention is measured using the DVS INT-Std dynamic moisture and gas adsorption analyzer of the Surface Measurement Systems Company in UK. The humidity test range was 0%-95%, the air flow was 200 mL/min, the temperature was 25° C., test point: take one test point per […] 5% humidity.
An appropriate amount of the test sample was taken and the hygroscopicity of the test sample was tested by dynamic moisture adsorption device. The description of the hygroscopic characteristics and the definition of the hygroscopic weight gain (Appendix 9103 of Chinese Pharmacopoeia 2020 Edition, Guidelines for Drug Hygroscopicity Tests, experimental conditions: 25° C.±1° C., 80%±2% relative humidity) are described in the table below: […]

[3] = Stability experiment (high-temperature, high-humidity and photostability tests); type: physicochemical
Experimental: (§1) (1) High-temperature test: A batch of the test sample was taken into a flat weighing bottle, divided into ≤5 mm thick thin layer. The sample was placed at 60° C. for 30 days. The sample was then sampled at day 5, day 13 and day 30, and the change of the sample's color was observed. The purity of the sample was detected by HPLC.
as §1, with “(2) High-humidity” for “(1) High-temperature”, “25° C., RH 90%±5%” for “60° C.”
as §1, with “(3) Photostability” for “(1) High-temperature”, “placed in an opened light box (with UV)” for “placed”, “the illuminance […], UV light ≥0.7 w/m^2” for “60° C.”

[4] = High-humidity 25° C., RH 90%±5%, day 5
[5] = High-humidity 25° C., RH 90%±5%, day 13
[6] = High-humidity 25° C., RH 90%±5%, day 30
[7] = High-temperature 60° C., day 13
[8] = High-temperature 60° C., day 30
[9] = Lighting (light box with UV), day 5
[10] = Lighting (light box with UV), day 13
[11] = Lighting (light box with UV), day 30

Structure (SMILES): O=C(O)c1ccc2c(c1)Oc1ccc(OCc3c(-c4c(Cl)cccc4Cl)noc3C3CC3)nc1C1(CC1)C2 [Crystal form H, 2-((5-cyclopropyl-3-(2,6-dichlorophenyl)isoxazol-4-yl)methoxy)-10H-spiro[benzo[6,7]oxepino[3,2-b]pyridine-11,1′-cyclopropane]-7-carboxylic acid]
- AUC(0-t) ([1]; dog, plasma): 1130 ng·h/mL
- Cmax ([1]; dog, plasma): 514 ng/mL
- Tmax ([1]; dog, plasma): 1.33 h
- exposure in Beagle dogs [1]: relatively large exposure
- hygroscopic characteristics [2]: lightly hygroscopic
- Appearance [3, 4]: White
- Purity (HPLC) [3, 4]: 99.89%
- Appearance [3, 5]: White
- Purity (HPLC) [3, 5]: 99.92%
- Appearance [3, 6]: White
- Purity (HPLC) [3, 6]: 99.85%
- Appearance ([3]; High-temperature 60° C., day 5): White
- Purity (HPLC) ([3]; High-temperature 60° C., day 5): 99.89%
- Appearance [3, 7]: White
- Purity (HPLC) [3, 7]: 99.72%
- Appearance [3, 8]: White
- Purity (HPLC) [3, 8]: 99.86%
- Appearance [3, 9]: White
- Purity (HPLC) [3, 9]: 99.90%
- Appearance [3, 10]: White
- Purity (HPLC) [3, 10]: 99.91%
- Appearance [3, 11]: White
- Purity (HPLC) [3, 11]: 99.72%
- Appearance ([3]; day 0): White
- Purity (HPLC) ([3]; day 0): 99.83%
- crystal structure stability ([3]; high temperature conditions): remains basically unchanged
- crystal structure stability ([3]; high temperature, high humidity and/or lighting conditions): remains basically unchanged
- changes in the appearance and chemical purity ([3]; high-temperature, high-humidity and/or lighting): no obvious changes

Source: patent US20250262191A1, “NEW CRYSTAL FORM OF NITROGEN-CONTAINING TRICYCLIC COMPOUND AND USE THEREOF” (SUNSHINE LAKE PHARMA CO., LTD., priority 2021, published 2025)
